According to ChEMBL document CHEMBL5113460, “Discovery of dual inhibitors of topoisomerase I and Cyclooxygenase-2 for colon cancer therapy” (Eur J Med Chem, 2022):
In brackets after ≈: the same amount, converted by molar mass. Activity calls are given as the source filed them. No cut-off for these calls is given here.

Assays:
HT-29 [1] = experiment: Induction of apoptosis in human HT-29 cells assessed as reduction in mitochondrial membrane potential at 2 to 8 uM by TMRE staining based flow cytometry; format: functional, cell-based; details: dose 2-8 µM
RKO [2] = experiment: Antitumor activity against human RKO cells assessed as inhibition of cell proliferation incubated for 72 hrs by MTT assay; format: functional, cell-based
LoVo = experiment: Antitumor activity against human LoVo cells assessed as inhibition of cell proliferation incubated for 72 hrs by MTT assay; format: functional, cell-based
[3] = biological target: T1, DNA topoisomerase 1 (Homo sapiens) (UniProt P11387); experiment: Poison activity at topoisomerase 1 (unknown origin) assessed as s increase in nicked DNA formation at 1 mM using supercoiled plasmid DNA as substrate at 200 to 400 uM incubated for 35 mins by agarose gel electrophoresis
T1 sequence (whole entry): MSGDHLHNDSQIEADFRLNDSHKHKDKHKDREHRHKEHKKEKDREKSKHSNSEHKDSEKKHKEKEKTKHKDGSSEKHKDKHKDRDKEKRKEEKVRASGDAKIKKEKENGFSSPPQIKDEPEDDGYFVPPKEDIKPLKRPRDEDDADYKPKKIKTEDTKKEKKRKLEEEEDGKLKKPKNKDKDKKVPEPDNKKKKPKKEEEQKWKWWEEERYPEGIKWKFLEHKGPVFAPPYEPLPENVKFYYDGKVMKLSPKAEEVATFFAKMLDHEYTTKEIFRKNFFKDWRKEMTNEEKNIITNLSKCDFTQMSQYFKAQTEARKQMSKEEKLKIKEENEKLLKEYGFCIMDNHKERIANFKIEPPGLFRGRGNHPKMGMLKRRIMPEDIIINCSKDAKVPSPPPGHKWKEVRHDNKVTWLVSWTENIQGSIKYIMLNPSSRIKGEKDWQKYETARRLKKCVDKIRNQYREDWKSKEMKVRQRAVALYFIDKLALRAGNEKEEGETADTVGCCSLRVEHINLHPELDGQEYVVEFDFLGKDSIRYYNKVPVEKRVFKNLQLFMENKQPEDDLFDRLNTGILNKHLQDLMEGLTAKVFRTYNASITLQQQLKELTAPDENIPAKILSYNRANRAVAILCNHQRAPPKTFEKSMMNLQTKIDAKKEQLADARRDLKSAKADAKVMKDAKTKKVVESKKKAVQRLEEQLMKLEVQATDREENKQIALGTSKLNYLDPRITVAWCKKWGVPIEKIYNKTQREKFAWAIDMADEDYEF

RKO [4] = experiment: Induction of cell cycle arrest in human RKO cells assessed as ratio of G1/G0 phase at 2 to 8 uM incubated for 24 hrs by flow cytometry (Rvb= 37.57%); format: functional; details: dose 2-8 µM
RKO [5] = experiment: Antiproliferative activity against human RKO cells assessed as inhibition of cell proliferation incubated for 24 to 72 hrs by MTT assay; format: functional, cell-based; details: time 24-72 hrs, DDE = dose-dependent effect
HT-29 [6] = experiment: Antiproliferative activity against human HT-29 cells assessed as inhibition of cell colonies at 0.25 to 1 uM incubated for 7 days by crystal violet staining based microscopic analysis; format: functional; details: dose 0.25-1 µM, time 7.0 day
RKO [7] = experiment: Antiproliferative activity against human RKO cells assessed as inhibition of cell colonies at 0.37 to 1.5 uM incubated for 7 days by crystal violet staining based microscopic analysis; format: functional; details: dose 0.37-1.5 µM, time 7.0 day
HT-29 [8] = experiment: Induction of apoptosis in human HT-29 cells assessed as late apoptotic cells at 8 uM incubated for 24 hr by Annexin-V-FITC/PI staining based flow cytometry (Rvb=8.60%); format: functional
RKO [9] = experiment: Induction of apoptosis in human RKO cells assessed as viable cells at 3 uM incubated for 24 hr by Annexin-V-FITC/PI staining based flow cytometry (Rvb= 87.9%); format: functional; details: read-out: Activity
RKO [10] = experiment: Induction of apoptosis in human RKO cells assessed as early apoptotic cells at 3 uM incubated for 24 hr by Annexin-V-FITC/PI staining based flow cytometry (Rvb= 7.27%); format: functional
RKO [11] = experiment: Induction of apoptosis in human RKO cells assessed as early apoptotic cells at 6 uM incubated for 24 hr by Annexin-V-FITC/PI staining based flow cytometry (Rvb= 7.27%); format: functional
RKO [12] = experiment: Induction of apoptosis in human RKO cells assessed as early apoptotic cells at 9 uM incubated for 24 hr by Annexin-V-FITC/PI staining based flow cytometry (Rvb= 7.27%); format: functional
RKO [13] = experiment: Induction of apoptosis in human RKO cells assessed as late apoptotic cells at 9 uM incubated for 24 hr by Annexin-V-FITC/PI staining based flow cytometry (Rvb= 4.49%); format: functional
RKO [14] = experiment: Induction of apoptosis in human RKO cells assessed as necrotic cells at 6 uM incubated for 24 hr by Annexin-V-FITC/PI staining based flow cytometry (Rvb= 0.30%); format: functional
HT-29 [15] = experiment: Induction of apoptosis in human HT-29 cells assessed as increase in intracellular ROS level at 2 to 8 uM for 24 hrs by DCFH-DA staining-based flow cytometric analysis; format: functional, cell-based; details: dose 2-8 µM
RKO [16] = experiment: Induction of apoptosis in human RKO cells assessed as increase in intracellular ROS level at 3 to 9 uM for 24 hrs by DCFH-DA staining-based flow cytometric analysis; format: functional, cell-based; details: dose 3-9 µM
HT-29 [17] = experiment: Induction of apoptosis in human HT-29 cells assessed as decrease in Bcl-2 protein level at 2 to 8 uM incubated for 24 hrs by western blot analysis; format: functional, cell-based; details: dose 2-8 µM
RKO [18] = experiment: Induction of apoptosis in human RKO cells assessed as increase in cytochrome c protein level at 3 to 9 uM incubated for 24 hrs by western blot analysis; format: functional, cell-based; details: dose 3-9 µM
RKO [19] = experiment: Induction of apoptosis in human RKO cells assessed as decrease in Bcl-2 protein level at 3 to 9 uM incubated for 24 hrs by western blot analysis; format: functional, cell-based; details: dose 3-9 µM
HT-29 [20] = experiment: Inhibition of NF-kappaB signalling pathway in human HT-29 cells assessed as decrease in phosphorylated IkappaB level at 2 to 8 uM incubated for 24 hrs by Western blot analysis; format: cell-based; details: dose 2-8 µM
RKO [21] = experiment: Inhibition of NF-kappaB signalling pathway in human RKO cells assessed as decrease in phosphorylated NF-kappaB p65 level at 3 to 9 uM incubated for 24 hrs by Western blot analysis; format: cell-based; details: dose 3-9 µM
[22] = Water solubility of compound by HPLC analysis; format: physicochemical
[23] = Cmax in Sprague-Dawley rat at 100 mg/kg, po and measured upto 24 hrs by LC-MS analysis; format: ADME, organism-based; design: time < 24 hrs, dose 100 mg/kg, route po; details: in vivo
[24] = AUC (0-t) in Sprague-Dawley rat at 30 mg/kg, po and measured upto 12 hrs by LC-MS analysis; format: ADME, organism-based; design: dose 30 mg/kg, time < 12 hrs, route po; details: in vivo
HT-29 [25] = experiment: Antitumor activity against human HT-29 cells xenografted in BALB/c mouse assessed as inhibition of tumor growth at 30 mg/kg, ip bid and measured after 14 days by vernier caliper method; format: functional; details: HT-29, 336 h, time 14 day, read-out: TGI
HT-29 [26] = experiment: Antitumor activity against human HT-29 cells xenografted in BALB/c mouse assessed as inhibition of tumor growth at 15 mg/kg, ip bid and measured after 14 days by vernier caliper method; format: functional; details: HT-29, 336 h, time 14 day, read-out: TGI
HT-29 [27] = experiment: Antitumor activity against human HT-29 cells xenografted in BALB/c mouse assessed as reduction of tumor weight at 15 mg/kg, ip bid and measured after 14 days; format: functional, organism-based; details: time 14.0 day

Cc1c(Cl)cccc1Nc1ccccc1C(=O)Nc1ccc(N2CCNCC2)cc1
Activity (HT-29 [1]): Active | IC50 (RKO [2]): 2.06 µM | IC50 (LoVo): 4.89 µM | Activity [3]: Active | Activity (RKO [4]): 76.99% | Activity (RKO [5]): Dde | Activity (HT-29 [6]): Active | Activity (RKO [7]): Active | Activity (HT-29 [8]): 26.1% | viability at 3 µM (RKO [9]): 88% | Activity (RKO [10]): 6.88% | Activity (RKO [11]): 10.5% | Activity (RKO [12]): 22.7% | Activity (RKO [13]): 11.2% | Activity (RKO [14]): 0.73% | Activity (HT-29 [15]): Active | Activity (RKO [16]): Active | Activity (HT-29 [17]): Active | Activity (RKO [18]): Active | Activity (RKO [19]): Active | inhibition (HT-29 [20]): Active | inhibition (RKO [21]): Active | solubility [22]: 32.3 µg/mL (≈ 76.8 µM) | Cmax [23]: 2000 ng/mL | AUC(0-t) at 12 h [24]: 5410 ng·h/mL | inhibition in vivo at 30 mg/kg (HT-29 [25]): 57.9% | inhibition in vivo at 15 mg/kg (HT-29 [26]): 40.7% | Activity (HT-29 [27]): Active
